# Measured values: patent publication US20120046224A1, “TREATMENT OF DIABETES AND METABOLIC SYNDROME” (NORDIC BIOSCIENCE A/S, priority 2009, published 2012)
# No end group written: not given here.
# Assays:
# [1] = Body weight and whole body composition (MR scanning) in DIO rats; type: in vivo, rat; conditions: for change in body weight: once daily oral, Calcitonin 2 mg/kg/day with 5-CNAC 150 mg/kg/day, or 5-CNAC 150 mg/kg/day alone; for increase in fat content (MR analysis): CT 2 mg/kg/day with 5-CNAC
# Procedure: (§1) A total of 48 selectively bred male DIO rats were used. At the beginning of the experiment, the animals had reached an age of 35 weeks, out of which 31 weeks were on high-fat diet.
# (§2) At day −7, 21 and 42 fasted serum and urine samples were collected and whole body tissue composition was evaluated by MR scanning. At day 42, an oral glucose tolerance test (OGTT) was performed to evaluate glucose homeostasis in the rats. At day −1 the animals were stratified according to weight and whole body fat mass (assessed by a 4-in-1 EchoMRI scanner) to the different treatment groups. The groups were randomized in three teams by body weight.
# First day of dosing was day 0. Animals were dosed per oral 5 ml/kg. The compound solution was administered once daily at 7:00 AM-2:00 PM during the whole study (0-42 days) per oral gavage using a gastric tube connected to a 5 ml syringe (luer lock™. Becton).
# To assess the distribution of the gained weight during the treatment program the animals were subjected to MR analysis after termination. Two parameters were investigated: 1) change in fatty mass and, 2) change in total water content.
# DIO rats = test: Oral glucose tolerance test (OGTT) in DIO rats; type: in vivo, rat; conditions: for plasma insulin response during OGTT: peak 15 minutes after glucose, CT compared to 5-CNAC group; for maximum / peak blood glucose level during OGTT: reached 15 minutes after OGTT (CT), at 60 minutes (5-CNAC)
# Procedure: as §1, §2
# First day of dosing was day 0. Animals were dosed per oral 5 ml/kg.
# In order to test the glucose handling in different treatment groups, an oral glucose tolerance test (OGTT) was performed.
# Sprague Dawley rats = test: OGTT in healthy lean Sprague Dawley rats; type: in vivo, rat
# Procedure: The rats were treated bi daily for 5 weeks using the same dose as in the DIO rats.
# [2] = Weight gain in normal Sprague-Dawley rats; type: in vivo, rat; conditions: twice daily oral, salmon calcitonin 2 mg/kg/day with 5-CNAC 150 mg/kg/day, 8 weeks, vs control group
# Procedure: (§3) A total of 40 rats were divided into 4 groups, two bilateral ovariectomy (OVX) groups and two normal groups.
# (§4) The first day of dosing was day 0. Animals were dosed per oral 5 ml/kg. The compound solution was administered twice daily, the first dose at 7:00 AM and the second dose 8 hours later (between 3 and 4 PM) during the whole study. The dosing was done by oral gavage using a gastric tube connected to a 5 ml syringe. Feeding was ad libitum.
# [3] = Ovariectomy (OVX)-induced weight gain in Sprague-Dawley rats; type: in vivo, rat
# Procedure: as §3, §4
# A total of 20 rats were bilaterally ovariectomized (OVX). The animals were treated once daily with either 5-CNAC 150 mg/kg/day alone or that amount of 5-CNAC in combination with Calcitonin 2 mg/kg/day for 8 weeks during which the weight was monitored once a week. Feeding was again ad libitum.
# The first day of dosing was day 0. Animals were dosed per oral 5 ml/kg. The compound solution was administered once daily between 7:00 and 8:00 AM during the whole study per oral gavage using a gastric tube connected to a 5 ml syringe.
# CTX-II = test: Serum CTX-II after oral dosing in fasted rats; type: in vivo, rat; conditions: sCT 2 mg/kg, carrier 150 mg/kg
# Procedure: Fasted rats were treated with oral doses of carrier alone (5-CNAC or SNAC), sCT alone or sCT in combination with carrier (5-CNAC or SNAC). Blood sampling was conducted at baseline, one, three and six hours after oral dosing, and serum was isolated. Concentrations of CTX-II were subsequently measured in the serum samples.
# Rats were randomized according to weight into five groups and fasted over night. […] Blood samples were taken from tail vein at baseline, one, three and six hours after oral dosing. Serum was isolated from the blood samples and CTX-II concentrations were measured in undiluted serum samples. […] Each group contained 6 animals. Statistical analyses were conducted with one-way ANOVA and Bonferroni's Multiple Comparison Test to adjust for multiple tests. Error bars indicate standard error of mean (SEM). Asterisks indicate: **=p<0.01, ***=p<0.001.
# [4] = rabbits, injection, 600 MRC U per month or 50 MRC U single dose; cited from earlier work
# [5] = rats, intracerebroventricular administration; cited from earlier work
# rat hepatocytes = conditions: cited from earlier work
# [6] = cited from earlier work; for fasting plasma glucose: rats and mice, intravenous bolus injection
# [7] = cited from earlier work; for glucose levels: fasting animals, parenterally administered
# [8] = rats or mice, cited from earlier work
# [9] = rhesus monkeys, parenteral, 5 day administration period; cited from earlier work
# [10] = healthy volunteers, intramuscular; cited from earlier work
# [11] = latent diabetes in humans, infusion; cited from earlier work
# [12] = insulin dependent diabetic patients, intravenous infusion; cited from earlier work
# [13] = Paget's disease of the bone patients, injection; cited from earlier work
# [14] = intra-muscular, cited from earlier work
# [15] = cited from earlier work
# [16] = 100 MRC units per day, 2 months, cited from earlier work
# [17] = i.m. 100 MRC units twice daily, 15 days; cited from earlier work
# [18] = 62.26 pmol/kg, patients with a duodenal ulcer; cited from earlier work
# [19] = rats fed a high fat diet, delivered by osmotic pump; cited from earlier work
# [20] = cited from earlier work; remark: listed apart in the source
# [21] = 100 U by i.v. infusion; cited from earlier work
# [22] = healthy test persons, infusion; cited from earlier work
compound,measurement,setting,value
"O=C(O)CCCCCCCNC(=O)c1cc(Cl)ccc1O [5-CNAC, N-(5-chlorosalicyloyl)-8-aminocaprylic acid]",change in body weight,[1],Neither the CT treated group nor the 5-CNAC group display any change in their body weight
same,plasma insulin response during OGTT,DIO rats,the levels stay in the hyperinsulinaemic state throughout the OGTT
same,maximum / peak blood glucose level during OGTT,DIO rats,9.8 mM
Salmon calcitonin [CT],increase in fat content (MR analysis),[1]; compared to 5-CNAC and vehicle groups,a significant increase compared to the 5-CNAC and vehicle groups
same,increase in fat content (MR analysis),"[1]; compared to rosiglitazone group, p<0.0001",significantly lower increase in the fat content compared to rosiglitazone group
same,change in body weight,[1],Neither the CT treated group nor the 5-CNAC group display any change in their body weight
same,AUC of change in insulin levels during OGTT,DIO rats,lowest change in insulin levels
same,AUC of net change in plasma glucose (glucose clearance during OGTT),DIO rats,significantly increased glucose clearance during the OGTT
same,effect on AUC of change in glucose,DIO rats; CT compared to Rosiglitazone groups,markedly larger than the changes seen in the Rosiglitazone groups
same,peak glucose levels during OGTT,DIO rats; CT treated compared to 5CNAC group,strongly reduced peak glucose levels
same,basal insulin level to which insulin returns after the peak,DIO rats; OGTT,4.53 µg/L
same,plasma insulin response during OGTT,DIO rats,attenuated insulin response
same,maximum / peak blood glucose level during OGTT,DIO rats,8.2 mM
same,AUC of change in glucose during OGTT,Sprague Dawley rats,potently reduces glucose levels
same,increase of insulin level in response to OGTT,Sprague Dawley rats,approximately 0.5 μg/L
same,time until insulin level returned to basal,Sprague Dawley rats; OGTT,60 min
same,AUC of change in insulin levels during OGTT,"Sprague Dawley rats; between groups, p=0.08",the AUC of change is significant between the groups
same,basal glucose levels,"Sprague Dawley rats; treated bi daily for 5 weeks, same dose as in DIO rats",lowered basal glucose levels
same,peak glucose level during OGTT,Sprague Dawley rats; vs vehicle (5-CNAC) group,prevented this drastic peak
same,natural weight gain,[2],reduction of the natural weight gain
same,OVX-induced weight gain,"[3]; once daily oral, 8 weeks",does not protect against OVX-induced weight gain
same,OVX-induced increase in bodyweight,"[3]; twice daily oral, 7 weeks",protected partially against the OVX-induced increase in bodyweight
same,serum CTX-II concentration,"CTX-II; one hour after oral dosing, vs carrier alone",significantly lowered the CTX-II concentration
same,serum CTX-II concentration,CTX-II; three and six hours after oral dosing,return to the baseline level
same,glucose level measured after fasting,[4],marked decrease in glucose level
same,glucose stimulated release of insulin,[5],increased glucose stimulated release of insulin
same,effect on rat hepatocytes and other cells,rat hepatocytes,little effect
same,fasting plasma glucose,[6],elevation of fasting plasma glucose
same,glucose levels,[7],a rise in glucose levels
same,short term food intake,[8]; acute parenteral administration,potently induced reduction in short term food intake
same,duration of the effect on food intake,[8]; parenteral,3 days
same,food intake,[9],reduce food intake in rhesus monkeys throughout a 5 day administration period
same,blood glucose during a morning fast and glucose tolerance test,[10],inhibited decrease of blood glucose during a morning fast and impaired a glucose tolerance test
same,serum level of insulin and blood sugar,[11],reducing the serum level of insulin and increasing the blood sugar
same,glucose rise in arginine tolerance test,[12],abolished the glucose rise normally seen in an arginine tolerance test
same,serum glucose and serum insulin,[13],a moderate immediate rise in serum glucose and a slight decrease in serum insulin
same,integrated glucose areas under plasma glucose curves,[14]; humans,approximately doubling
same,response to a glucose tolerance test,[14]; normal humans,a deterioration in response to a glucose tolerance test
same,glucose level and glucagon,[15]; insulin dependent diabetics,a fall in glucose level along with the fall in glucagon
same,circulating glucagon and serum insulin,"[15]; normal human volunteers, infused",a fall in circulating glucagon levels and a fall in serum insulin
same,glucose tolerance,[16]; Paget's disease or osteoporosis patients,Glucose tolerance did not deteriorate significantly
same,basal plasma glucose,[16],significant increase in basal plasma glucose
same,carbohydrate metabolism after a mixed meal stimulus,[17],not seen to cause appreciable change in carbohydrate metabolism
same,post-prandial insulin release,[18],post-prandial insulin release was abolished
"amylin (KCNTATCATQRLANFLVHSSNNFGAILSSTNVGSNTY; not fully specified (C-terminus, bridges); cysteine pairing not given here; UniProt P10997 34-70, looked up) [calcitonin family peptide hormone, literature results]",weight gain,[19],caused a reduction in weight gain
same,effect on rat hepatocytes and other cells,rat hepatocytes,little effect
same,glucose levels,[7],a rise in glucose levels
same,rise in glucose in oral glucose tolerance test,"[7]; rats, parenterally administered shortly before the test",reduced the rise in glucose
same,plasma glucose,[20]; in the absence of a meal,"associated with a rise in plasma glucose in rodents, but not in humans"
same,rise in plasma glucose,"[20]; in the context of a meal, rats, dogs and humans",suppressed a rise in plasma glucose
calcitonin,glycemic recovery,"[6]; hypoglycaemic rat, compared to glucagon",a greater glycemic recovery than glucagon
same,glycaemia in the course of an OGTT,[21],a persistence of hyperglycaemia
same,insulin secretion,[21],An inhibitory action of calcitonin on insulin secretion was also observed
human calcitonin (CGNLSTCMLGTYTQDFNKFHTFPQTAIGVGAP; ends and bridges not checked; cysteine pairing not given here; listed as Homo sapiens),glucose assimilation and insulin output,[22],significant impairment of glucose assimilation and insulin output
same,serum glucose and serum insulin,[13],a moderate immediate rise in serum glucose and a slight decrease in serum insulin
rat calcitonin (CGNLSTCMLGTYTQDLNKFHTFPQTSIGVGAP; ends and bridges not checked; cysteine pairing not given here),effect on rat hepatocytes and other cells,rat hepatocytes,little effect
same,fasting plasma glucose,[6],a lesser effect
